“Also recorded” adds a separate entry of the source. Where two headings read alike, the source gives them in different places.
Legend:
SARS-CoV-2 [1] = settings: cited from earlier work; for Activity in NCATS CPE experiments: NCATS HTS
SARS-CoV-2 [2] = format: cell-based
[3] = cited from earlier work
Vero E6 cells = settings: Vero E6, absence of virus, UTHSC
[4] = tested on: SARS-CoV-2 Isolate USA-WA1/2020; test: Vero E6 cell assay; format: cell-based
SARS-CoV-2 [5] = format: cell-based; remark: listed apart in the source

SMILES	Activity in NCATS CPE experiments (SARS-CoV-2 [1])	Reduction of virus titer (SARS-CoV-2 [5])	other results
O=C(OCC(O)CO)c1ccccc1Nc1ccnc2cc(Cl)ccc12 (centres unmarked) [glafenine]	low activity	–	–
CC(COc1ccccc1)NC(C)C(O)c1ccc(O)cc1 (centres unmarked) [isoxsuprine]	low activity	–	–
CCNCc1cc(Nc2ccnc3cc(Cl)ccc23)ccc1O [N-monodesethyl amodiaquine]	–	–	EC50 (SARS-CoV-2 [2]): 4 µM; half-life [3]: ~20.8 days; half-life ([3]; human, in vivo): over 3 weeks; CC50 (Vero E6 cells): 5.9 µM; Antiviral activity compared to chloroquine [4]: almost inactive
CCN(CC)CCCC(C)Nc1ccnc2cc(Cl)ccc12 (centres unmarked) [chloroquine]	–	did not reduce the virus titer	–
COc1cc(NC(C)CCCN)c2ncccc2c1 (centres unmarked) [primaquine]	–	Neither primaquine nor ambroxol were found to reduce the virus titer	Antiviral activity at the tested concentrations (SARS-CoV-2 [2]; UTHSC dose response): did not exhibit appreciable activity; Antiviral activity in dose-response experiment in comparison with chloroquine [4]: no appreciable activity
Nc1c(Br)cc(Br)cc1CN[C@H]1CC[C@H](O)CC1 [ambroxol]	low activity	inactive; also recorded: Neither primaquine nor ambroxol were found to reduce the virus titer	–
O=C(CCCCCCC(=O)Nc1ccccc1)NO [vorinostat]	low activity	–	–
CCCCc1nc2cc(/C=C/C(=O)NO)ccc2n1CCN(CC)CC [pracinostat]	low activity	–	–
Cc1[nH]c2ccccc2c1CCNCc1ccc(/C=C/C(=O)NO)cc1 [panobinostat]	low activity	–	–
OCCN1CCN(CC/C=C2/c3ccccc3Sc3ccc(Cl)cc32)CC1 [zuclopenthixol]	–	more than 1 log unit	Peak of activity (SARS-CoV-2 [2]; 8.33 μM, UTHSC): 80%; bioavailability ([3]; listed as ZPX): about 50%
CN(Cc1cc(Br)cc(Br)c1N)C1CCCCC1 [bromhexine]	found active	–	EC50 (SARS-CoV-2 [1]; read-out: EC50 in CPE assay, NCATS): 13.9 µM
OC(CNCC(O)C1CCc2cc(F)ccc2O1)C1CCc2cc(F)ccc2O1 (centres unmarked) [nebivolol]	poor activity	more than 1 log units	–
CCC(CC)COC(=O)[C@H](C)N[P@](=O)(OC[C@H]1O[C@@](C#N)(c2ccc3c(N)ncnn23)[C@H](O)[C@@H]1O)Oc1ccccc1 [remdesivir]	–	3–4 log units	–
CCN(CC)Cc1cc(Nc2ccnc3cc(Cl)ccc23)ccc1O [amodiaquine]	high activity	–	half-life [3]: 0.12 days

From paper PMC7571299 (ACS Pharmacology & Translational Science, 2020)
